molecular target: T1, Syk kinase (Homo sapiens, UniProt P43405); assay: Syk kinase inhibition, Caliper LabChip off-chip mobility-shift kinase assay; type: biochemical; details: Caliper LabChip assay; read-out: Syk Enzyme IC50
T1 construct: purchased
Procedure, shortened: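 Purified Syk pre-incubated 15 min with compound in 100 mM HEPES pH 7.5, 1 mM DTT, 10 mM MgCl2 or MnCl2, 0.002% Brij-35, then 1.5 μM fluorescein peptide and ATP at apparent KM added; 1–1.5 h at room temperature, 4% DMSO, EDTA stop. Microfluidic mobility-shift product/substrate conversion gave % inhibition; IC50 from 12-point series (10–0.00003 μM) by 4-parameter fit.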

IC50 [nM]	Structure (SMILES)
13	CC1(Cn2ccc3cc(-c4cnc(N)nc4)nc(NC(C)(C)C)c3c2=O)COC1 [compound 924]
145	CC(C)(Cc1ccc(F)cc1)Nc1nc(-c2cnc(N)nc2)cc2ccn(CCO)c(=O)c12 [compound 925]
50	CC(C)(C)Nc1nc(-c2cnc(N)nc2)cc2ccn(CC(O)C(F)(F)F)c(=O)c12 (stereo not drawn) [compound 926]
14	CC(O)Cn1ccc2cc(-c3cnc(N)nc3)nc(NC(C)(C)C)c2c1=O (stereo not drawn) [compound 927]
44	CC(C)(O)Cn1ccc2cc(-c3cnc(N)nc3)nc(NC(C)(C)C)c2c1=O [compound 928]
8	CC(C)(C)Nc1nc(-c2cnc(N)nc2)cc2ccn(CC(O)CO)c(=O)c12 (stereo not drawn) [compound 929]
81	CC1(Nc2nc(-c3cnc(N)nc3)cc3ccn(CC4CCOCC4)c(=O)c23)CCC1 [compound 930]
15	CC1(Nc2nc(-c3cnc(N)nc3)cc3ccn(C4COC4)c(=O)c23)CCC1 [compound 931]
57	CC1(Cn2ccc3cc(-c4cnc(N)nc4)nc(NC4(C)CCC4)c3c2=O)COC1 [compound 932]
25	CC1(Nc2nc(-c3cnc(N)nc3)cc3ccn(CC4(CO)COC4)c(=O)c23)CCC1 [compound 933]
9	CC(C)(C)Nc1nc(-c2cnc(N)nc2)cc2ccn(C[C@H](O)CO)c(=O)c12 [compound 934]
8	CC(C)(C)Nc1nc(-c2cnc(N)nc2)cc2ccn(C[C@H](O)CO)c(=O)c12 [compound 935]
15	COCC(COC)n1ccc2cc(-c3cnc(N)nc3)nc(NC(C)(C)C)c2c1=O [compound 936]
12	COCC(COC)n1ccc2cc(Nc3cnccn3)nc(NC(C)(C)C)c2c1=O [compound 937]
24	CCn1ccc2cc(Nc3cnccn3)nc(N[C@H]3CCC[C@H]3O)c2c1=O [compound 938]
1050	CCn1ccc2cc(Nc3cc(C)ccn3)nc(N[C@@H]3CCC[C@H]3O)c2c1=O [compound 939]
483	CCn1ccc2cc(Nc3cnccn3)nc(N[C@@H]3CCC[C@H]3O)c2c1=O [compound 940]

IC50 [nM]	Structure (SMILES)
226	CCn1ccc2cc(Nc3cc(C)ccn3)nc(N[C@@H]3CCC[C@@H]3CO)c2c1=O [compound 941]
87	CCn1ccc2cc(Nc3cnccn3)nc(N[C@@H]3CCC[C@@H]3CO)c2c1=O [compound 942]
39	Cc1ccnc(Nc2cc3ccn(C(C)C)c(=O)c3c(N[C@H]3CC[C@@H](O)CC3)n2)c1 [compound 943]
32	CC(C)n1ccc2cc(Nc3cnccn3)nc(N[C@H]3CC[C@@H](O)CC3)c2c1=O [compound 944]
23	CCn1ccc2cc(Nc3cc(C)ccn3)nc(N[C@H]3CC[C@H](O)C3)c2c1=O [compound 945]
17	CCn1ccc2cc(Nc3cnccn3)nc(N[C@H]3CC[C@H](O)C3)c2c1=O [compound 946]
19	Cc1ccnc(Nc2cc3ccn(CCCO)c(=O)c3c(N[C@H]3CC[C@@H](O)CC3)n2)c1 [compound 947]
18	O=c1c2c(N[C@H]3CC[C@@H](O)CC3)nc(Nc3cnccn3)cc2ccn1CCCO [compound 948]
50	CCn1ccc2cc(Nc3cnccn3)nc(N[C@H]3CC[C@H](O)CC3)c2c1=O [compound 949]
53	CCn1ccc2cc(Nc3cc(C)ccn3)nc(NC3CCC(C)(O)CC3)c2c1=O (stereo not drawn) [compound 950]
92	CCn1ccc2cc(Nc3cc(C)ccn3)nc(NC3CCC(C)(O)CC3)c2c1=O (stereo not drawn) [compound 951]
51	CCn1ccc2cc(Nc3cnccn3)nc(NC3CCC(C)(O)CC3)c2c1=O (stereo not drawn) [compound 952]
754	CCn1ccc2cc(Nc3cc(C)ccn3)nc(NC3CC=C(C)CC3)c2c1=O (stereo not drawn) [compound 954]
376	CCn1ccc2cc(Nc3cnccn3)nc(NC3CC=C(C)CC3)c2c1=O (stereo not drawn) [compound 955]
66	CCn1ccc2cc(Nc3nccc(O)n3)nc(N[C@H]3CCC[C@@H]3O)c2c1=O [compound 956]
15	CCn1ccc2cc(Nc3nccc(O)n3)nc(N[C@H]3CCC[C@H]3O)c2c1=O [compound 957]
